Source: patent US9636338B2, “Phenyl-dihydropyridine derivatives as inhibitors of aldosterone synthase” (Hoffmann-La Roche Inc., priority 2013, dated 2017)

How the values were obtained:
CYP11B2 = CYP11B2 (Homo sapiens (Human), UniProt P19099); assay: G-402 cellular enzyme assay, human CYP11B2 (aldosterone release, HTRF); assay type: cell-based; conditions: G-402 cells expressing human CYP11B2; 1 μM Deoxycorticosterone
Source text: (§1) Herein we identified the use of the G-402 cell line as a host cell to ectopically express (transiently or stably) enzymes of the CYP11 family. Specifically we developed stable G-402 cells expressing ectopically human CYP11B1, human CYP11B2, human CYP11A1, cynmolgus CYP11B1 or cynomolgus CYP11B2 enzyme activity. Importantly the identified cell line G-402 expresses co-factors (adrenodoxin and adrenodoxin reductase) important for the activity of the CYP11 family and no relevant enzyme activity of the CYP11 family (in comparison to H295R cells) was detected in these cells. Therefore the G-402 cell line is uniquely suited as a host cell for the ectopic expression of enzymes from the CYP11 family. G-402 cells can be obtained from ATCC (CRL-1440) and were originally derived from a renal leiomyoblastoma.
(§2) The expression plasmids contains the ORF for either human/cyno CYP11B1 or CYP11B2 under the control of a suitable promoter (CMV-promoter) and a suitable resistance marker (neomycin). Using standard techniques the expression plasmid is transfected into G-402 cells and these cells are then selected for expressing the given resistance markers. Individual cell-clones are then selected and assessed for displaying the desired enzymatic activity using 11-Deoxycorticosterone (Cyp11B2) or 11-Deoxycortisol (Cyp11B1) as a substrate.
(§3) G-402 cells expressing CYP11 constructs were established as described above and maintained in McCoy's 5a Medium Modified, ATCC Catalog No. 30-2007 containing 10% FCS and 400 μg/ml G418 (Geneticin) at 37° C. under an atmosphere of 5% CO2/95% air. Cellular enzyme assays were performed in DMEM/F12 medium containing 2.5% charcoal treated FCS and appropriate concentration of substrate (0.3-10 uM 11-Deoxycorticosterone, 11-Deoxycortisol or Corticosterone). For assaying enzymatic activity, cells were plated onto 96 well plates and incubated for 16 h. An aliquot of the supernatant is then transferred and analyzed for the concentration of the expected product (Aldosterone for CYP11B2; Cortisol for CYP11B1). The concentrations of these steroids can be determined using HTRF assays from CisBio analyzing either Aldosterone or Cortisol.
(§4) Inhibition of the release of produced steroids can be used as a measure of the respective enzyme inhibition by test compounds added during the cellular enzyme assay. The dose dependent inhibition of enzymatic activity by a compound is calculated by means of plotting added inhibitor concentrations (x-axes) vs. measured steroid/product level (y-axes). The inhibition is then calculated by fitting the following 4-parameter sigmoidal function (Morgan-Mercer-Flodin (MMF) model) to the raw data points using the least squares method:
(§5) [formula] wherein, A is the maximum y value, B is the EC50 factor determined using XLFit, C is the minimum y value and D is the slope value.
(§6) EC50 values for compounds claimed herein were tested with the G402-based assay system described. Cyp11B2 enzyme activity was tested in presence of 1 μM Deoxycorticosterone and variable amounts of inhibitors; Cyp11B1 enzyme activity was tested in presence of 1 μM Deoxycortisol and variable amounts of inhibitors.

human CYP11B1 = human CYP11B1 (Homo sapiens (Human), UniProt P15538); assay: G-402 cellular enzyme assay, human CYP11B1 (cortisol release, HTRF); assay type: cell-based; conditions: G-402 cells expressing human CYP11B1; 1 μM Deoxycortisol
Source text: as §1, §2, §3, §4, §5, §6

Sequence of CYP11B2 (P19099 25-503): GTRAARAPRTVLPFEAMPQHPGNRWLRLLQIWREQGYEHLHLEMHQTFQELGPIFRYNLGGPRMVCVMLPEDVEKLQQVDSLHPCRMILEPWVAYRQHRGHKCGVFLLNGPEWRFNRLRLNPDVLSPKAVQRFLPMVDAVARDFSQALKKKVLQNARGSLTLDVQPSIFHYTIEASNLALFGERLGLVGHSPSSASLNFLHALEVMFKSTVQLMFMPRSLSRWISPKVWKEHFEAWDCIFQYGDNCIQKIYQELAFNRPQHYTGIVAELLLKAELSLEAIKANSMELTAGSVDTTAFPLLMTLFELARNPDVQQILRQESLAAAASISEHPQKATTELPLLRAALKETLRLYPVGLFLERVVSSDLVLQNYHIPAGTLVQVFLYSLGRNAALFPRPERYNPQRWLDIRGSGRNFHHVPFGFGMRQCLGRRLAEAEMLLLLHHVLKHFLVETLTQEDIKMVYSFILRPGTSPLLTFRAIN
Sequence of human CYP11B1 (P15538 25-503): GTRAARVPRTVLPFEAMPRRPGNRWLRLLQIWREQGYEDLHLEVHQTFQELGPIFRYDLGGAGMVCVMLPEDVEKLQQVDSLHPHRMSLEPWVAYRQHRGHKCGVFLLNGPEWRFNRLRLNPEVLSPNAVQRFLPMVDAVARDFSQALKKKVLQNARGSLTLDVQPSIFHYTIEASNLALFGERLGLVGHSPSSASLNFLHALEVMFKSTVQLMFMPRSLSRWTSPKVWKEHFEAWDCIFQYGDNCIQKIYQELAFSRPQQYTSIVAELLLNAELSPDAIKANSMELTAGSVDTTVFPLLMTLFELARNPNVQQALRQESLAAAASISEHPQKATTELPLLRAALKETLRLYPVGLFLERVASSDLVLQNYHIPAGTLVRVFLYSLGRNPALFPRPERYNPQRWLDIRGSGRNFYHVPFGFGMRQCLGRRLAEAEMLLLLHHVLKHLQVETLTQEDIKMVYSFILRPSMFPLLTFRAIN

Structure (SMILES)	EC50 (CYP11B2)	EC50 (human CYP11B1)
OC1CCc2cncc(-c3ccc(C(F)(F)F)c(F)c3)c21 (racemic) [Example 2, (rac)-4-(3-Fluoro-4-(trifluoromethyl)phenyl)-6,7-dihydro-5H-cyclopenta[c]pyridin-5-ol]	0.069 µM	2.34 µM
O=C(CC1CCc2cncc(-c3ccc(C(F)(F)F)c(F)c3)c21)Nc1cc[nH]n1 (racemic) [Example 18, (rac)-2-[4-[3-Fluoro-4-(trifluoromethyl)phenyl]-6,7-dihydro-5H-cyclopenta[c]pyridin-5-yl-]-N-(1H-pyrazol-3-yl)acetamide]	0.597 µM	0.282 µM
O=C(CC1CCc2cncc(-c3ccc(C(F)(F)F)c(F)c3)c21)N1CCCCC1 (racemic) [Example 15, (rac)-2-[4-[3-Fluoro-4-(trifluoromethyl)phenyl]-6,7-dihydro-5H-cyclopenta[c]pyridin-5-yl]-1-(1-piperidyl)ethanone]	0.832 µM	> 30 µM
C[C@H]1CCCN1C(=O)CC1CCc2cncc(-c3ccc(C(F)(F)F)cc3F)c21 (mixture of isomers) [Example 24, (rac)-2-[4-[2-Fluoro-4-(trifluoromethyl)phenyl]-6,7-dihydro-5H-cyclopenta[c]pyridin-5-yl]-1-[(2S)-2-methylpyrrolidin-1-yl]ethanone]	0.205 µM	3.97 µM
CNC(=O)CC1CCc2cncc(-c3ccc(C(F)(F)F)c(F)c3)c21 (racemic) [Example 12, (rac)-2-[4-[3-Fluoro-4-(trifluoromethyl)phenyl]-6,7-dihydro-5H-cyclopenta[c]pyridin-5-yl]-N-methyl-acetamide]	0.113 µM	1.03 µM
O=C(CC1CCc2cncc(-c3ccc(C(F)(F)F)c(F)c3)c21)N1CCOCC1 (racemic) [Example 16, (rac)-2-[4-[3-Fluoro-4-(trifluoromethyl)phenyl]-6,7-dihydro-5H-cyclopenta[c]pyridin-5-yl]-1-morpholino-ethanone]	1.02 µM	3.63 µM
CC(C)N(C)C(=O)CC1CCc2cncc(-c3ccc(C(F)(F)F)cc3F)c21 (racemic) [Example 21, (rac)-2-[4-[2-Fluoro-4-(trifluoromethyl)phenyl]-6,7-dihydro-5H-cyclopenta[c]pyridin-5-yl]-N-isopropyl-N-methyl-acetamide]	0.413 µM	8.36 µM
OC1(c2ccccc2)CCc2cncc(-c3ccc(C(F)(F)F)cc3F)c21 (single isomer, unassigned; (-)) [Example 10, (−)-4-[2-Fluoro-4-(trifluoromethyl)phenyl]-5-phenyl-6,7-dihydrocyclopenta[c]pyridin-5-ol]	0.063 µM	8.13 µM
CC1(O)CCc2cncc(-c3ccc(C(F)(F)F)c(F)c3)c21 (racemic) [Example 3, (rac)-4-(3-Fluoro-4-(trifluoromethyl)phenyl)-5-methyl-6,7-dihydro-5H-cyclopenta[c]pyridin-5-ol]	0.045 µM	2.34 µM
OC1(c2ccccc2)CCc2cncc(-c3ccc(C(F)(F)F)c(F)c3)c21 (racemic) [Example 4, (rac)-4-(3-Fluoro-4-(trifluoromethyl)phenyl)-5-phenyl-6,7-dihydro-5H-cyclopenta[c]pyridin-5-ol]	0.05 µM	1.96 µM
CN(C(=O)CC1CCc2cncc(-c3ccc(C(F)(F)F)cc3F)c21)C1CC1 (racemic) [Example 22, (rac)-N-Cyclopropyl-2-[4-[2-fluoro-4-(trifluoromethyl)phenyl]-6,7-dihydro-5H-cyclopenta[c]pyridin-5-yl-]-N-methyl-acetamide]	0.957 µM	9.44 µM
CCCNC(=O)CC1CCc2cncc(-c3ccc(C(F)(F)F)c(F)c3)c21 (racemic) [Example 14, (rac)-2-[4-[3-Fluoro-4-(trifluoromethyl)phenyl]-6,7-dihydro-5H-cyclopenta[c]pyridin-5-yl]-N-propyl-acetamide]	1.53 µM	2.6 µM
OC1(c2ccccc2)CCc2cncc(-c3ccc(C(F)(F)F)cc3F)c21 (single isomer, unassigned; (+)) [Example 9, (+)-4-[2-Fluoro-4-(trifluoromethyl)phenyl]-5-phenyl-6,7-dihydrocyclopenta[c]pyridin-5-ol]	0.742 µM	35 µM
O=C(CC1CCc2cncc(-c3ccc(C(F)(F)F)c(F)c3)c21)Nc1ccon1 (racemic) [Example 17, (rac)-2-[4-[3-Fluoro-4-(trifluoromethyl)phenyl]-6,7-dihydro-5H-cyclopenta[c]pyridin-5-yl]-N-isoxazol-3-yl-acetamide]	0.1 µM	0.311 µM
OC1(c2ccccc2)CCc2cncc(-c3ccc(C(F)(F)F)cc3F)c21 (racemic) [Example 8, (rac)-4-[2-Fluoro-4-(trifluoromethyl)phenyl]-5-phenyl-6,7-dihydrocyclopenta[c]pyridin-5-ol]	0.033 µM	7.38 µM
CC1(O)CCc2cncc(-c3ccc(C(F)(F)F)cc3F)c21 (racemic) [Example 6, (rac)-4-[2-Fluoro-4-(trifluoromethyl)phenyl]-5-methyl-6,7-dihydrocyclopenta[c]pyridin-5-ol]	0.739 µM	> 30 µM
CCN(C)C(=O)CC1CCc2cncc(-c3ccc(C(F)(F)F)cc3F)c21 (racemic) [Example 20, (rac)-N-Ethyl-2-[4-[2-fluoro-4-(trifluoromethyl)phenyl]-6,7-dihydro-5H-cyclopenta[c]pyridin-5-yl-]-N-methyl-acetamide]	0.213 µM	6 µM
O=C(CC1CCc2cncc(-c3ccc(C(F)(F)F)cc3F)c21)N1CCCC1 (racemic) [Example 19, (rac)-2-[4-[2-Fluoro-4-(trifluoromethyl)phenyl]-6,7-dihydro-5H-cyclopenta[c]pyridin-5-yl]-1-pyrrolidin-1-yl-ethanone]	0.442 µM	8.47 µM
CCN(C(=O)CC1CCc2cncc(-c3ccc(C(F)(F)F)cc3F)c21)C1CC1 (racemic) [Example 23, (rac)-N-Cyclopropyl-N-ethyl-2-[4-[2-fluoro-4-(trifluoromethyl)phenyl]-6,7-dihydro-5H-cyclopenta[c]pyridin-5-yl]acetamide]	0.487 µM	8.61 µM
NC1CCc2cncc(-c3ccc(C(F)(F)F)c(F)c3)c21 (racemic) [Example 1, (rac)-4-(3-Fluoro-4-(trifluoromethyl)phenyl)-6,7-dihydro-5H-cyclopenta[c]pyridin-5-amine]	0.263 µM	5.35 µM
OC1CCc2cncc(-c3ccc(C(F)(F)F)cc3F)c21 (racemic) [Example 5, (rac)-4-[2-Fluoro-4-(trifluoromethyl)phenyl]-6,7-dihydro-5H-cyclopenta[c]pyridin-5-ol]	0.133 µM	3.33 µM
CC(C)C1(O)CCc2cncc(-c3ccc(C(F)(F)F)cc3F)c21 (racemic) [Example 7, (rac)-4-[2-Fluoro-4-(trifluoromethyl)phenyl]-5-isopropyl-6,7-dihydrocyclopenta[c]pyridin-5-ol]	0.74 µM	14.4 µM
CCOC(=O)CC1CCc2cncc(-c3ccc(C(F)(F)F)c(F)c3)c21 (racemic) [Example 11, (rac)-Ethyl 2-[4-[3-fluoro-4-(trifluoromethyl)phenyl]-6,7-dihydro-5H-cyclopenta[c]pyridin-5-yl]acetate]	0.064 µM	0.367 µM
